Measured values taken from patent US20210214364A1, “sGC STIMULATORS” (Cyclerion Therapeutics, Inc., priority 2013, published 2021).

Legend:
obese mice = settings: cited from earlier work
[1] = test system: lambs with acute pulmonary hypertension (U-46619); settings: cited from earlier work; for effect on mean arterial pressure / pulmonary vasodilation / transpulmonary cGMP release / systemic arterial oxygenation: awake lambs; for effect on mean arterial pressure / pulmonary vasodilation / transpulmonary cGMP release: U-46619 infusion
NO-deficient rats = settings: cited from earlier work
patients with BMD = settings: single oral dose of 20 mg, double-blind randomized placebo-controlled crossover trial; cited from earlier work
[2] = biological target: T1, soluble guanylate cyclase (sGC) endogenously expressed in HEK293 cells (Homo sapiens, UniProt Q02108+Q02153); test: sGC-HEK-cGMP assay with LC/MS detection (whole cell); assay type: cell-based; settings: 10 μM DETA-NONOate, 20 min, concentration eliciting 50% of high control response (30 μM Compound Y), read-out: sGC_HEK_LC MS EC50 Abs
T1 construct: endogenously expressing soluble guanylate cyclase (sGC); endogenous in cells; host or cells: HEK293
T1 sequence (Q02153 1-619): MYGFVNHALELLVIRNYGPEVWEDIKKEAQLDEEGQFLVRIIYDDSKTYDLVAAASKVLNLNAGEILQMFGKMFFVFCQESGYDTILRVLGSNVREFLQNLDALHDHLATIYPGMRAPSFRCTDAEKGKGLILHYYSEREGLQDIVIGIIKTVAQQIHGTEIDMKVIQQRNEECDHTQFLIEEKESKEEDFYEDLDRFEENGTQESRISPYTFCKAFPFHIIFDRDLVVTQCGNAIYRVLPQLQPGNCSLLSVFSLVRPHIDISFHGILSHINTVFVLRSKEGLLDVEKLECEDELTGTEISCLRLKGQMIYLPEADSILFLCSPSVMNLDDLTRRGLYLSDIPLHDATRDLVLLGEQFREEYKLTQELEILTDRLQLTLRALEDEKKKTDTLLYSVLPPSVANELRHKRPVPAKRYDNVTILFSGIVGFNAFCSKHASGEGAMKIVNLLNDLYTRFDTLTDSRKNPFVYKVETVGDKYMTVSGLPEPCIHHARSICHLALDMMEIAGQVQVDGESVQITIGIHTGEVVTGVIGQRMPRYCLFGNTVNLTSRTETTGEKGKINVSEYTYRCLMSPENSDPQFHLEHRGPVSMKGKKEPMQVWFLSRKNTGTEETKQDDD
T1 sequence (Q02108 1-690): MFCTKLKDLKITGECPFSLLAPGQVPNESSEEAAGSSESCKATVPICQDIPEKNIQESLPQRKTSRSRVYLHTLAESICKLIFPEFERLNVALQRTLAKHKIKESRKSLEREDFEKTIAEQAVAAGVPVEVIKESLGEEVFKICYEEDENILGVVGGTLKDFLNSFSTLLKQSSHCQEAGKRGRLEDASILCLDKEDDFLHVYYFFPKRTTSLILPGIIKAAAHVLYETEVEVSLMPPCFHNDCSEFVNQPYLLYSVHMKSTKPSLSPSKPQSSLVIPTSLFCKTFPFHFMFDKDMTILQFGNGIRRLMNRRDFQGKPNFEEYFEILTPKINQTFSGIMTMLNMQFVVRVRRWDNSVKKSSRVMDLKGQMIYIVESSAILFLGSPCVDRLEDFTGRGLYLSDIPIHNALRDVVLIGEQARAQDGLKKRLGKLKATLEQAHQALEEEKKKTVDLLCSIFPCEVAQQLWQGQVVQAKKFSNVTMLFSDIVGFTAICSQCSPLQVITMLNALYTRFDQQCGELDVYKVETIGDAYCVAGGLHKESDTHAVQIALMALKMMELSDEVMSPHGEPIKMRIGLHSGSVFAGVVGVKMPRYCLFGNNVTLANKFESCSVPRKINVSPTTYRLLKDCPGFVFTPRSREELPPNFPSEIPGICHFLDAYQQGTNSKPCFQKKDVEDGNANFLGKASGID
Method: Example 2: Biological Activity Measurement by the sGC-HEK-cGMP Assay, with LC/MS Detection
Human embryonic kidney cells (HEK293), endogenously expressing soluble guanylate cyclase (sGC), were used to evaluate the activity of test compounds. Compounds stimulating the sGC enzyme should cause an increase in the intracellular concentration of cGMP. HEK 293 cells were seeded in Dulbecco's Modification of Eagle's Medium supplemented with fetal bovine serum (10% final) and penicillin (100 U/mL)/streptomycin (100 μg/mL) in a 50 μL volume at a density of 1.5×10^4 cells/well in a poly-D-lysine coated 384 well flat bottom plate. Cells were incubated overnight at 37° C. in a humidified chamber with 5% CO2. Medium was aspirated and cells were washed with 1× Hank's Buffered Saline Salt Solution (50 μL). Cells were then incubated for 15 minutes at 37° C. with 50 μL of a 0.5 mM 3-isobutyl-1-methylxanthine (IBMX) solution. Test article and Diethylenetriamine NONOate (DETA-NONOate) solutions (x […] concentration for test article solution and 10 μM concentration for DETA-NONOate solution; wherein x is one of the following concentrations);
were then added to the assay mixture and the resulting mixture incubated at 37° C. for 20 minutes. After the 20 minute incubation, the assay mixture was aspirated and 10% acetic acid containing 150 ng/mL+3-cGMP (internal standard for LCMS) (50 μL) was added to the cells. The plate was incubated at 4° C. for 30 minutes in the acetic acid solution to stop the reaction and lyse the cells. The plates were then centrifuged at 1,000 g for 3 minutes at 4° C. and the supernatant transferred to a clean reaction plate for LCMS analysis.
cGMP concentrations were determined from each sample using the LCMS conditions below (Table 2) and calculated standard curve. The standard curve was prepared in 10% acetic acid with 150 ng/mL+3cGMP (isotopically labelled cGMP with a weight 3 units higher than wild type) with the following final concentrations of cGMP in ng/mL: 1, 5, 10, 50, 100, 250, 500, 1000, 2000.
Data were normalized to a high control using the following equation: 100*(Sample−Low Control)/(High Control−Low Control), where the low control is the average of 16 samples treated with 1% DMSO, and the high control is the average of 16 samples treated with 30 μM of Compound Y depicted below. Data were fit using a 4-parameter fit (log(agonist) vs. response variable slope) using GraphPad Prism Software v.5. n=2 for all compounds. The Absolute EC50 was interpolated from the curve fit and is defined as the concentration at which a given compound elicits 50% of the high control response. Compounds failing to elicit a minimum response of 50% are reported as >30 μM. For compounds run in duplicate or n higher than 2, the result herein given is the geometric mean of the several results obtained.

[3] = test system: Guinea pig tracheal smooth muscle (GPTSM); settings: guinea pig tracheal strips, sub-maximal EFS; 95% Cl 0.78-0.94; read-out: IC50, inhibition of baseline EFS-induced contraction; cited from earlier work

O=C(O)CCCCN(CCc1cc(F)ccc1OCc1ccc(-c2ccc(C(F)(F)F)cc2)cc1)Cc1ccc(C(=O)O)cc1 [BAY 60-2770]
effect on overactive bladder (obese mice): ameliorates overactive bladder in obese mice

Nc1nc(-c2nn(Cc3ccccc3F)c3ncccc23)ncc1C1CC1 [BAY 41-2272]
effect on mean arterial pressure ([1]; inhaled microparticles): without significant effect on mean arterial pressure
pulmonary vasodilation ([1]; inhaled microparticles): dose dependent pulmonary vasodilation
transpulmonary cGMP release ([1]; inhaled microparticles): increased transpulmonary cGMP release

Nc1nc(-c2nn(Cc3ccccc3F)c3ncccc23)ncc1C1CC1 [BAY-2272]
effect on bladder dysfunction (NO-deficient rats): protective effects

CN1CC(=O)N2[C@H](c3ccc4c(c3)OCO4)c3[nH]c4ccccc4c3C[C@@H]2C1=O [tadalafil]
normal blood flow regulation (patients with BMD): restored in eight of nine patients

O=C(O)CCCCN(CCc1ccccc1OCc1ccc(CCc2ccccc2)cc1)Cc1ccc(C(=O)O)cc1 [BAY 58-2667]
pulmonary vasodilation and transpulmonary cGMP release after treatment with ODQ ([1]; inhaled microparticles, after intravenous ODQ): greatly enhanced
effect on mean arterial pressure ([1]; inhaled microparticles): without significant effect on mean arterial pressure
pulmonary vasodilation ([1]; inhaled microparticles): dose dependent pulmonary vasodilation
transpulmonary cGMP release ([1]; inhaled microparticles): increased transpulmonary cGMP release
systemic arterial oxygenation ([1]; inhaled microparticles): increased systemic arterial oxygenation

COc1cc(-c2ncc(F)c(N3CCC[C@H](C)[C@@H]3C(=O)O)n2)nn1Cc1ccccc1F [Compound I-70]
EC50 [2]: 0.101 to 1 µM

O=c1[nH]c(-c2cc(OC(F)F)n(Cc3ccccc3F)n2)ncc1F [Compound I-4]
EC50 [2]: ≥ 1 µM

COc1cc(-c2ncc(F)c(N3CCCC3)n2)nn1Cc1ccccc1F [Compound I-22]
EC50 [2]: ≥ 1 µM

CC1(C(N)=O)C(=O)Nc2nc(-c3cc(OC(F)F)n(Cc4ccccc4F)n3)nc(N)c21 (stereo not shown) [Compound I-71]
EC50 [2]: 0.101 to 1 µM

COc1cc(-c2ncc(F)c(N3CCNCC3)n2)nn1Cc1ccccc1F [Compound I-24]
EC50 [2]: ≥ 1 µM

COc1cc(-c2ncc(F)c(NCC(O)(C(N)=O)C(F)(F)F)n2)nn1Cc1ccccc1F (stereo not shown) [Compound I-20]
EC50 [2]: 0.101 to 1 µM

COc1cc(-c2ncc(F)c(N3CCC(S(N)(=O)=O)CC3)n2)nn1Cc1ccccc1F [Compound I-33]
EC50 [2]: ≥ 1 µM

Cn1c(-c2nc(N)c3c(n2)NC(=O)C3(C)C(=O)NC2CC2)nn(Cc2ccccc2F)c1=O (stereo not shown) [Compound I-38]
EC50 [2]: ≥ 1 µM

Cn1c(-c2nc(N)c3c(n2)NC(=O)C3(C)C(N)=O)nn(Cc2ccccc2F)c1=O (stereo not shown) [Compound I-18]
EC50 [2]: ≥ 1 µM

CC1(C(N)=O)C(=O)Nc2nc(-c3cc(OC(F)F)n(CCC(F)(F)C(F)(F)F)n3)nc(N)c21 (stereo not shown) [Compound I-41]
EC50 [2]: ≥ 1 µM

CCOC(=O)C1(C)C(=O)Nc2nc(-c3cc(OC(F)F)n(Cc4cccc(F)c4F)n3)nc(N)c21 (stereo not shown) [Compound I-52]
EC50 [2]: 0.101 to 1 µM

CC1(C(N)=O)C(=O)Nc2nc(-c3nn(Cc4ccccc4F)c(=O)[nH]3)nc(N)c21 (stereo not shown) [Compound I-10]
EC50 [2]: ≥ 1 µM

CCOC(=O)C1(C)C(=O)Nc2nc(-c3cc(OCC)n(Cc4ccccc4F)n3)nc(N)c21 (stereo not shown) [Compound I-46]
EC50 [2]: 0.101 to 1 µM

Nc1nc(-c2nn(Cc3ccccc3F)c3ncccc23)nc(N)c1N1CCOCC1 [BAY 41-8543]
magnitude and duration of pulmonary vasodilation induced by iNO ([1]; after inhaling microparticles): augmented
effect on mean arterial pressure ([1]; inhaled microparticles): without significant effect on mean arterial pressure
pulmonary vasodilation ([1]; inhaled microparticles): dose dependent pulmonary vasodilation
transpulmonary cGMP release ([1]; inhaled microparticles): increased transpulmonary cGMP release
systemic arterial oxygenation ([1]; inhaled microparticles): increased systemic arterial oxygenation

CCOC(=O)C1(C)C(=O)Nc2nc(-c3cc(OC)n(Cc4ccccc4F)n3)[nH]c(=O)c21 (stereo not shown) [Compound I-35]
EC50 [2]: 0.101 to 1 µM

CC(C)[N+]1(C)[C@@H]2CC[C@H]1C[C@@H](OC(=O)C(CO)c1ccccc1)C2 (stereo partly shown) [Ipratropium bromide]
IC50 [3]: 0.00086 µM
